From the PolyMetriX glass transition set
± gives the standard deviation of the reports.

SMILES	glass transition temperature
*Oc1ccc(NC(=O)c2ccc(Oc3ccc(C(C)(C)c4ccc(C(C)(C)c5ccc(Oc6ccc(C(=O)Nc7ccc(Oc8ccc(-c9ccc(*)cc9)cc8)cc7)cc6)cc5)cc4)cc3)cc2)cc1 (repeat unit)	177.00 °C
*COc1ccc(C(c2ccc(O*)cc2)(C(F)(F)F)C(F)(F)F)cc1 (repeat unit)	123.00 °C
*c1c(C)cc(C)c(N2C(=O)c3cccc(Oc4c(C)cc(Cc5cc(C)c(Oc6cccc7c6C(=O)N(*)C7=O)c(C)c5)cc4C)c3C2=O)c1C (repeat unit)	287.00 °C
*c1c(C)cc(C(c2cc(C)c(N3C(=O)c4ccc(-c5ccc6c(c5)C(=O)N(*)C6=O)cc4C3=O)c(C)c2)c2cccc3ccccc23)cc1C (repeat unit)	326.00 °C
*CCCCCOc1cccc(NC(=O)c2ccc(C(=O)Nc3cccc(O*)c3)cc2)c1 (repeat unit)	135.00 °C
*Oc1ccc(Oc2ccc(C(=O)c3cccc(-c4cccc(C(=O)c5ccc(*)cc5)c4)c3)cc2)cc1 (repeat unit)	154.00 °C
*C1C(=O)N(c2ccccc2C(=O)OCCCC)C(=O)C1* (repeat unit)	181.00 °C
*c1ccc(Oc2ccc3c(c2)C(=O)N(*)C3=O)cc1 (repeat unit)	266.00 °C
*CCOC(=O)Nc1ccc(CCc2ccc(NC(=O)O*)cc2)cc1 (repeat unit)	116.90 °C
*CC(O)COc1ccc(O*)cc1 (repeat unit)	60.00 °C
*/C=C/c1c(OC(=O)c2ccc(C(=O)Oc3cccc4ccc(*)nc34)cc2)ccc2ccccc12 (repeat unit)	175.00 °C
*CCCCCCCCNC(=O)CCCCCCCCCCCCCCC(=O)N* (repeat unit)	52.00 °C
*c1ccc2c(c1)C(=O)N(c1cc(N3C(=O)c4ccc(C(*)(C(F)(F)F)C(F)(F)F)cc4C3=O)ccc1C)C2=O (repeat unit)	335.00 °C
*c1ccc2c(c1)C(=O)N(c1ccc(Sc3ccc(Sc4ccc(Sc5ccc(N6C(=O)c7ccc(C(*)(C(F)(F)F)C(F)(F)F)cc7C6=O)cc5)cc4)cc3)cc1)C2=O (repeat unit)	233.00 °C
*Oc1ccc2ccc(Oc3ccc(C(=O)Nc4ccc(Oc5ccc(C(C)(C)c6ccc(Oc7ccc(NC(=O)c8ccc(*)cc8)cc7)cc6)cc5)cc4)cc3)cc2c1 (repeat unit)	143.00 °C
*c1ccc(Oc2c(C)cc(C(c3cc(C)c(Oc4ccc(N5C(=O)c6ccc(-c7ccc8c(c7)C(=O)N(*)C8=O)cc6C5=O)cc4)c(C)c3)c3cccc4ccccc34)cc2C)cc1 (repeat unit)	289.50 °C
*c1ccc(Oc2ccc(-c3ccc(Oc4ccc(N5C(=O)c6ccc(Oc7ccc(Oc8ccc(Oc9ccc%10c(c9)C(=O)N(*)C%10=O)cc8)cc7)cc6C5=O)cc4)cc3)cc2)cc1 (repeat unit)	211.00 °C
*Oc1ccc(C(C)(C)c2ccc(Oc3ccc(C(=O)c4ccc(C(C)(C)c5ccc(C(=O)c6ccc(*)cc6)cc5)cc4)cc3)cc2)cc1 (repeat unit)	171.00 °C
*CC(*)CCCCC (repeat unit) [Poly(pentylethylene)]	-44.33 ± 1.7 °C
*CC(=O)Nc1ccc(Oc2ccc(S(=O)(=O)c3ccc(Oc4ccc(NC(=O)CN5C(=O)c6ccc(C(c7ccc8c(c7)C(=O)N(*)C8=O)(C(F)(F)F)C(F)(F)F)cc6C5=O)cc4)cc3)cc2)cc1 (repeat unit)	241.00 °C
*c1ccc(-c2ccc3nc(*)cc(-c4ccccc4)c3c2)cc1 (repeat unit)	383.00 °C
*C(=O)c1ccc(Oc2ccc(Oc3ccc(C(=O)c4ccc5c(c4)C(=O)N(c4ccc(Cc6ccc(N7C(=O)c8ccc(*)cc8C7=O)cc6)cc4)C5=O)cc3)cc2)cc1 (repeat unit)	225.00 °C
*CC(*)C(=O)OCCCCCOC(=O)c1ccc(OC(=O)c2ccc(C#N)cc2)cc1 (repeat unit)	30.00 °C
